Results published in patent US4983608A, “N-substituted-4-pyrimidinamines and pyrimidinediamines” (Hoechst-Roussell Pharmaceuticals, Inc., priority 1989, dated 1991).

Tests used:
Type in all cases: in vivo
[1] = test system: phenyl-para-quinone writhing; experiment: phenyl-para-quinone writhing assay in mice (analgesia); conditions: Mus musculus, sc, 20 mg/kg s.c., read-out: Analgesic Activity % Inhibition of Writhing at a Screening Dose of 20 mg/kg s.c.
Method: Exptl. Biol. Med., 95, 729 (1957)]. Presented in Table I is the analgesic effect of some of the compounds of the invention, expressed as the percent decrease in writhing at a given dose (20 mg/kg s.c.).

[2] = test system: Scopolamine Induced Memory Deficit; experiment: Dark Avoidance Assay (reversal of scopolamine induced memory deficit); conditions: mice, retest after 24 hours
Method: The N-substituted-4-pyrimidinamines and pyrimidinediamines of the present invention are also useful in the treatment of various memory dysfunctions such as Alzheimer's disease.
In this assay, mice are tested for their ability to remember an unpleasant stimulus for a period of 24 hours. A mouse is placed in a chamber that contains a dark compartment; a strong incandescent light drives it to the dark compartment, where an electric shock is administered through metal plates on the floor. The animal is removed from the testing apparatus and tested again, 24 hours later, for the ability to remember the electric shock.
If scopolamine, an anticholinergic that is known to cause memory impairment is administered before an animal's initial exposure to the test chamber, the animal re-enters the dark compartment shortly after being placed in the test chamber 24 hours later. This effect of scopolamine is blocked by an active test compound, resulting in a greater interval before re-entry into the dark compartment.
The results for an active compound are expressed as the percent of a group of animals in which the effect of scopolamine is blocked, as manifested by an increased interval between being placed in the test chamber and re-entering the dark compartment.

[3] = test system: phenyl-para-quinone writhing; experiment: phenyl-para-quinone writhing assay in mice (analgesia); conditions: 3.9 mg/kg s.c. (standard)

Compound | inhibition in vivo at 20 mg/kg [1] | other results
CN(c1ccnc(Cl)n1)n1cccc1 [2-Chloro-N-methyl-N-(1H-pyrrol-1-yl)-4-pyrimidinamine] | 38% | 
N#Cc1cncnc1Nn1ccc2ccccc21 [5-Cyano-N-(1H-indol-1-yl)-4-pyrimidinamine] | 44% | % of Animals with Scopolamine Induced Memory Deficit Reversed ([2]; 1.25 mg/kg s.c. by body weight): 27%
CCCN(c1ncncc1C#N)n1ccc2ccccc21 [5-Cyano-N-(1H-indol-1-yl)-N-propyl-4-pyrimidinamine] | 75% | 
CCCN(c1cc(Cl)ncn1)n1ccc2ccccc21 [6-Chloro-N-(1H-indol-1-yl)-N-propyl-4-pyrimidinamine] | 40% | % of Animals with Scopolamine Induced Memory Deficit Reversed ([2]; 1.25 mg/kg s.c. by body weight): 47%
Clc1cc(Nn2cccc2)ncn1 [6-Chloro-N-(1H-pyrrol-1-yl)-4-pyrimidinamine] | 39% | 
Cc1cn(Nc2cc(Cl)ncn2)c2ccccc12 [6-Chloro-N-(3-methyl-1H-indol-1-yl)-4-pyrimidinamine] | 45% | % of Animals with Scopolamine Induced Memory Deficit Reversed ([2]; 1.25 mg/kg s.c. by body weight): 33%
CCCN(c1cc(Cl)ncn1)n1cc(C)c2ccccc21 [6-Chloro-N-(3-methyl-1H-indol-1-yl)-N-propyl-4-pyrimidinamine] | 36% | 
CN(c1cc(Cl)ncn1)n1cccc1 [6-Chloro-N-methyl-N-(1H-pyrrol-1-yl)-4-pyrimidinamine] | 42% | 
CCCN(c1cc(Cl)ncn1)n1cccc1 [6-Chloro-N-propyl-N-(1H-pyrrol-1-yl)-4-pyrimidinamine] | 46% | 
Cc1cn(Nc2cc(Nn3cc(C)c4ccccc43)ncn2)c2ccccc12 [N,N'-bis(3-methyl-1H-indol-1-yl)-4,6-pyrimidinediamine] | 33% | 
CCCN(c1ccncn1)n1ccc2ccccc21 [N-(1H-Indol-1-yl)-N-propyl-4-pyrimidinamine] | 58% | % of Animals with Scopolamine Induced Memory Deficit Reversed ([2]; 1.25 mg/kg s.c. by body weight): 27%
c1ccn(Nc2ccncn2)c1 [N-(1H-pyrrol-1-yl)-4-pyrimidinamine, N-(1H-Pyrrol-1-yl)-4-pyrimidinamine] | 30% | 
Cc1cn(Nc2ccncn2)c2ccccc12 [N-(3-methyl-1H-indol-1-yl)-4-pyrimidinamine] |  | % of Animals with Scopolamine Induced Memory Deficit Reversed ([2]; 1.25 mg/kg s.c. by body weight): 20%
CCCN(c1ccncn1)n1cc(C)c2ccccc21 [N-(3-methyl-1H-indol-1-yl)-N-propyl-4-pyrimidinamine] | 60% | 
c1ccc2c(c1)c1ccccc1n2Nc1ccncn1 [N-(pyrimidin-4-yl)-9H-carbazol-9-amine, N-(Pyrimidin-4-yl)-9H-carbazol-9-amine] | 65% | 
CC[C@@H]1C(=O)OC[C@@H]1Cc1cncn1C [Pilocarpine, reference compound] |  | % of Animals with Scopolamine Induced Memory Deficit Reversed ([2]; 5.00 mg/kg s.c. by body weight (standard)): 23%
CCC(=O)O[C@](Cc1ccccc1)(c1ccccc1)[C@H](C)CN(C)C [Propoxyphene] |  | Analgesic Activity % Inhibition of Writhing [3]: 50%
